This is an account of results in patent US20050107386A1, “Methods of treating diseases and disorders by targeting multiple kinases” (priority 2003, published 2005).

Holding throughout (conditions): 3 μM; percent of control kinase activity
Assay [1] addresses Rsk2(h) (Homo sapiens, UniProt P51812). Put plainly: Rsk2(h) kinase assay. It counts as biochemical. The method, then:
(§1) Six compounds (presumptive single agents) were tested against a panel of 50 kinases. The results are presented in Table 2; numbers for each kinase indicate the percent of control kinase activity in the presence of a 3μM concentration of the indicated agent.
(§2) Agents that target two or more different kinases are useful in the methods of the invention as described elsewhere herein. Such compounds may be identified, and their effect on certain kinases may be identified, using the assays briefly described below in Examples 4-83. Each of these assays was carried out as described in Davies et al., Biochem. J., 351:95-105 (2000). All assays were carried out at 10 μM ATP unless otherwise noted.
(§3) In a final reaction volume of 25 μl, Rsk2(h) (5-10 mU) is incubated with 8 mM MOPS pH 7.0, 0.2 mM EDTA, 30 μM […] (SEQ ID NO:11), 10 mM MgAcetate and [γ-^33P-ATP] (specific activity approx. 500 cpm/pmol, concentration as required). The reaction is initiated by the addition of Mg^2+ [γ-^33P-ATP]. After incubation for 40 minutes at room temperature, the reaction is stopped by the addition of 5 μl of a 3% phosphoric acid solution. 10 μl of the reaction is then spotted onto a P30 filtermat and washed three times for 5 minutes in 75 mM phosphoric acid and once in methanol prior to drying and scintillation counting.

Assay [2] addresses T1, ZAP-70(h) (Homo sapiens, UniProt P43403).
T1 sequence (P43403 1-619): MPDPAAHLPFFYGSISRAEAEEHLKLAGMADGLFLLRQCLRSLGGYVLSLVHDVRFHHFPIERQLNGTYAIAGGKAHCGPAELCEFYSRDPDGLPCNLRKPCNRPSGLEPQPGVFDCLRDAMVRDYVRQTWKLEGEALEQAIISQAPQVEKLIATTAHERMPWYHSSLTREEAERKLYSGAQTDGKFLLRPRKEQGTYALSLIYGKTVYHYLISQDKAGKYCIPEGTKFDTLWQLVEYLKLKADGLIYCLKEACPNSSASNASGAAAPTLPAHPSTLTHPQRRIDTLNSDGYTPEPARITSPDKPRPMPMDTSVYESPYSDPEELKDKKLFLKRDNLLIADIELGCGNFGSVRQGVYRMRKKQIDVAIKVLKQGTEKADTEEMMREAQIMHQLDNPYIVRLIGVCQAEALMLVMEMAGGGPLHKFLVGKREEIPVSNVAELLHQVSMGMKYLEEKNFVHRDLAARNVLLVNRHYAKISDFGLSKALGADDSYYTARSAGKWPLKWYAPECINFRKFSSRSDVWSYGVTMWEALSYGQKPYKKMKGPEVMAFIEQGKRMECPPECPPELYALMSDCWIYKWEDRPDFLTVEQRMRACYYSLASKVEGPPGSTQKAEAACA
In words: ZAP-70(h) kinase assay. The format is biochemical. The method, then: as §1, §2
In a final reaction volume of 25 μl, ZAP-70 (h) (5-10 mU) is incubated with 50 mM Tris pH 7.5, 0.1 mM EGTA, 0.1 mM NaVanadate, 0.1% β-mercaptoethanol, 0.1 mg/ml poly(Glu, Tyr) 4:1, 10 mM MnCl2, 10 mM MgAcetate and [γ-^33P-ATP] (Specific activity approx. 500 cpm/pmol, concentration as required). The reaction is initiated by the addition of Mg^2+ [γ-^33P-ATP]. After incubation for 40 minutes at room temperature, the reaction is stopped by the addition of 5 μl of a 3% phosphoric acid solution. 10 μl of the reaction is then spotted onto a Filtermat A and washed three times for 5 minutes in 75 mM phosphoric acid and once in methanol prior to drying and scintillation counting.

Assay [3] deals with p70S6K(h) (Homo sapiens, UniProt P23443). Put plainly: p70S6K(h) kinase assay. The format is biochemical. The method, then:
as §1, §2
as §3, with “μl, p70S6K (h)” for “μl, Rsk2(h)”, “EDTA, 100” for “EDTA, 30”, “ID NO:9),” for “ID NO:11),”

Assay [4] relates to CaMKII(r). Put plainly: CaMKII(r) kinase assay. The format is biochemical, rat. The method, then: as §1, §2
as §3, with “CaMKII (r)” for “Rsk2(h)”, “40” for “8”, “Hepes” for “MOPS”, “7.4, 5” for “7.0, 0.2”, “CaCl2, 30 μg/ml calmodulin,” for “EDTA,”

Assay [5] addresses CDK6/cyclinD3(h) (Homo sapiens, UniProt Q00534). In words: CDK6/cyclinD3(h) kinase assay. It counts as biochemical. The method, then:
as §1, §2
In a final reaction volume of 25 μl, CDK6/cyclinD3 (h) (5-10 mU) is incubated with 8 mM MOPS pH 7.0, 0.2 mM EDTA, 0.1 mg/ml histone H1, 10 mM MgAcetate and [γ-33p-ATP] (specific activity approx. 500 cpm/pmol, concentration as required). The reaction is initiated by the addition of Mg^2+ [γ-33P-ATP]. After incubation for 40 minutes at room temperature, the reaction is stopped by the addition of 5 μl of a 3% phosphoric acid solution. 10 μl of the reaction is then spotted onto a P30 filtermat and washed three times for 5 minutes in 75 mM phosphoric acid and once in methanol prior to drying and scintillation counting.

CDK6/cyclinD3(h), sequence (Q00534 whole entry): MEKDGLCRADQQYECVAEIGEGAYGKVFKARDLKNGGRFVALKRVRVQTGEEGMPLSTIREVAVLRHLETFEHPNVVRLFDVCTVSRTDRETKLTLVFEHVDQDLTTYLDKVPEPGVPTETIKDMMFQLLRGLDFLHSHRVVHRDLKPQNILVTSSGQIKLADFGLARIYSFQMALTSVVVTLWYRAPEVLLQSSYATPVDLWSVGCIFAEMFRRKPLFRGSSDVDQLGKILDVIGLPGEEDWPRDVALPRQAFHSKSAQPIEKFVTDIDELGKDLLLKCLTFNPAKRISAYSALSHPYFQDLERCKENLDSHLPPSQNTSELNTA
CDK6/cyclinD3(h), sequence (P30281 whole entry partner): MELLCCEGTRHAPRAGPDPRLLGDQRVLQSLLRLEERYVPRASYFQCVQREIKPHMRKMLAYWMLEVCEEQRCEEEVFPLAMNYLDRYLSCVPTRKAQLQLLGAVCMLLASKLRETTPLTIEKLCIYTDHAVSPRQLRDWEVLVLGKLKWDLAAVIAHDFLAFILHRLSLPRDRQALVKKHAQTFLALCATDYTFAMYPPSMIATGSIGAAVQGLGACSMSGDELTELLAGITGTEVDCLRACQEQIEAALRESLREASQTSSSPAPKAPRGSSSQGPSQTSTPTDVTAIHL
p70S6K(h), sequence (P23443 whole entry): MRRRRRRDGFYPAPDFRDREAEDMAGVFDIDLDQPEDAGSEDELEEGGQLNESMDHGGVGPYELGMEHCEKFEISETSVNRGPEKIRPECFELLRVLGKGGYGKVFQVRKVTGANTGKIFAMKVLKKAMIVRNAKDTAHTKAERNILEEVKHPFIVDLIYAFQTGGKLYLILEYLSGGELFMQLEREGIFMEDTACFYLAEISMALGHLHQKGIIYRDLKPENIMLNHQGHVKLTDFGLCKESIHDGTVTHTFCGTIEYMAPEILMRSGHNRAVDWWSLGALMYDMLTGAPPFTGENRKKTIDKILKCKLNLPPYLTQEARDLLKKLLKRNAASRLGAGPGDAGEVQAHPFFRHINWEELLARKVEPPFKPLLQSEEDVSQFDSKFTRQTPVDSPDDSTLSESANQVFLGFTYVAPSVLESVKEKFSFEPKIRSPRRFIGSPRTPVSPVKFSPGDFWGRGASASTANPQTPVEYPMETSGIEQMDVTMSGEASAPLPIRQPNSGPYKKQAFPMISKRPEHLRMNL
Rsk2(h), sequence (P51812 whole entry): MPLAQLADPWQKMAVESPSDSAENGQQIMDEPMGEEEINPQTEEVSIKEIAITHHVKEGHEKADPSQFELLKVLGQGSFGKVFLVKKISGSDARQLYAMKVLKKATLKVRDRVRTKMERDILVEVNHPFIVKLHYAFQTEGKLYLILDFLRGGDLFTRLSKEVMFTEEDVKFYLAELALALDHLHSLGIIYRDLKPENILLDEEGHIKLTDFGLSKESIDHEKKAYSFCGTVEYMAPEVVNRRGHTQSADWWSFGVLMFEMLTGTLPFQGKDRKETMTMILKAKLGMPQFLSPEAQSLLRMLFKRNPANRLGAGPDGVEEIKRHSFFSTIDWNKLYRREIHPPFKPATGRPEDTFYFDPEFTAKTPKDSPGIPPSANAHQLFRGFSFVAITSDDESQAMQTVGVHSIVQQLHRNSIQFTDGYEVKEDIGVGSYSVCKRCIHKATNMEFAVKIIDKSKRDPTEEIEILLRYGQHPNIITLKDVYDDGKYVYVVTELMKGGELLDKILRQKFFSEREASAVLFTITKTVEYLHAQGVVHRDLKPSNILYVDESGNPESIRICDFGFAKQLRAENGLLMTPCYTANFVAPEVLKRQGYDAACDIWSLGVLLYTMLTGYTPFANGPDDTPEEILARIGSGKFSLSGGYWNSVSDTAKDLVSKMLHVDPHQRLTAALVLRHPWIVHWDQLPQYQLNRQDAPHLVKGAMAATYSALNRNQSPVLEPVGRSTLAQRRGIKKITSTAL

On to `COc1ccc2cc(-c3n[nH]c4ccc(-c5n[nH]c(CN6CCOCC6)n5)cc34)ccc2c1` [CC001, 3-(6-Methoxynaphthalen-2-yl)-5-(5-Morpholin-4-Ylmethyl-1H-[1,2,4]Triazol-3-yl)-1H-Indazole], for which the “Inhibitory activity (% of control), Rsk2(h)” value in assay [1] was 6 % of control. Besides, in assay [2], the “Inhibitory activity (% of control), ZAP-70(h)” value was 105 % of control. Further, the “Inhibitory activity (% of control), p70S6K(h)” value in assay [3] is listed as 17 % of control. Moreover, the “Inhibitory activity (% of control), CaMKII(r)” value in assay [4] is on record as 64 % of control. In addition, in assay [5], the “Inhibitory activity (% of control), CDK6/cyclinD3(h)” value was 82 % of control.

Regarding `CC(C)Cc1nc(-c2ccc3[nH]nc(-c4ccc5cc(OCCN6CCCC6)ccc5c4)c3c2)n[nH]1` [CC002, 5-(5-Isobutyl-1H-[1,2,4]Triazol-3-yl)-3-[6-(2-Pyrrolidin-1-yl-Ethoxy)-Naphthalen-2-yl]-1H-Indazole], the “Inhibitory activity (% of control), Rsk2(h)” value in assay [1] was 5 % of control. In addition, the “Inhibitory activity (% of control), ZAP-70(h)” value in assay [2] is given as 40 % of control. Moreover, in assay [3], the “Inhibitory activity (% of control), p70S6K(h)” value was 16 % of control. For the same molecule, in assay [4], the “Inhibitory activity (% of control), CaMKII(r)” value is recorded as 26 % of control. For the same molecule, the “Inhibitory activity (% of control), CDK6/cyclinD3(h)” value in assay [5] is recorded as 59 % of control.

On to `CC(C)(C)Cc1nc(-c2ccc3[nH]nc(-c4ccc5cc(OCc6ccccn6)ccc5c4)c3c2)n[nH]1` [CC004, 5-[5-(2,2-Dimethyl-propyl)-1H-[1,2,4]triazol-3-yl]-3-[6-(pyridine-2-ylmethoxy)-naphthalen-2-yl]-1H-indazole], for which the “Inhibitory activity (% of control), Rsk2(h)” value in assay [1] is given as 34 % of control. For the same molecule, in assay [2], the “Inhibitory activity (% of control), ZAP-70(h)” value is recorded as 68 % of control. Further, the “Inhibitory activity (% of control), p70S6K(h)” value in assay [3] is 40 % of control. Moreover, the “Inhibitory activity (% of control), CaMKII(r)” value in assay [4] was 52 % of control. Moreover, the “Inhibitory activity (% of control), CDK6/cyclinD3(h)” value in assay [5] was 80 % of control.

Consider `CCN1CCC[C@H]1COc1ccc2cc(-c3n[nH]c4ccc(-c5nc(CC(C)(C)C)n[nH]5)cc34)ccc2c1` [CC005, 2-[((2s)-1-ethylpyrrolidin-2-yl)methoxy]-6-{5-[3-(2,2-Dimethylpropyl)(1H-1,2,4,-triazol-5-yl)](1H-indazol-3-yl)}naphthalene], for which the “Inhibitory activity (% of control), Rsk2(h)” value in assay [1] was 3 % of control. Besides, the “Inhibitory activity (% of control), ZAP-70(h)” value in assay [2] is 26 % of control. In assay [3], the “Inhibitory activity (% of control), p70S6K(h)” value was 3 % of control. In addition, the “Inhibitory activity (% of control), CaMKII(r)” value in assay [4] was 4 % of control. Besides, the “Inhibitory activity (% of control), CDK6/cyclinD3(h)” value in assay [5] was 29 % of control.

`Fc1ccc(-c2n[nH]c3ccc(-c4n[nH]c(C5CCCC5)n4)cc23)cc1` [CC006, 5-(5-Cyclopentyl-1H-[1,2,4]triazol-3-yl)-3-(4-fluoro-phenyl)-1H-indazole, reference compound]: the “Inhibitory activity (% of control), Rsk2(h)” value in assay [1] is given as 31 % of control. The “Inhibitory activity (% of control), ZAP-70(h)” value in assay [2] is 77 % of control. For the same molecule, in assay [3], the “Inhibitory activity (% of control), p70S6K(h)” value is 41 % of control. Further, the “Inhibitory activity (% of control), CaMKII(r)” value in assay [4] is reported as 82 % of control. For the same molecule, the “Inhibitory activity (% of control), CDK6/cyclinD3(h)” value in assay [5] was 63 % of control.

Regarding `O=C(NC1CCCC1)c1cccc(-c2n[nH]c3ccc(-c4nc[nH]n4)cc23)c1` [CC007, 3-(5-(1H-1,2,4-triazol-3-yl)(1H-indazol-3-yl))phenyl-N-cyclopentylcarboxamide, reference compound], the “Inhibitory activity (% of control), Rsk2(h)” value in assay [1] is listed as 45 % of control. In assay [2], the “Inhibitory activity (% of control), ZAP-70(h)” value was 87 % of control. Moreover, in assay [3], the “Inhibitory activity (% of control), p70S6K(h)” value is recorded as 83 % of control. Moreover, the “Inhibitory activity (% of control), CaMKII(r)” value in assay [4] was 68 % of control. In addition, the “Inhibitory activity (% of control), CDK6/cyclinD3(h)” value in assay [5] is recorded as 87 % of control.
